In data set [1] the test system is Male ddY mice (hypobaric hypoxia). Description: Hypobaric Hypoxia Activity (survival time of mice at 180 mmHg). It counts as in vivo. The conditions noted are these: Mus musculus, ip, 30 minutes before evacuation, survival time vs. control, read-out: Hypobaric Hypoxia (Minimum effective dose). As to the method: (§1) The activities of some compounds prepared in the above-mentioned Synthetic Examples and the Comparative Examples were evaluated as follows.
1. Hypobaric Hypoxia Activity
Male ddY mice having a body weight of 22 to 30 g were used (i.e., 7 to 10 mice in one group). The mice were placed in a desiccator having a volume of about 1 liter and the desiccator was evacuated and then, the sample compound was intraperitoneally injected […]. into the mice. The desiccator was evacuated 30 minutes after the injection and the time from the start of the evacuation to the termination of breathing by the mice was determined to be the survival time. If a mouse was still alive 15 minutes after exposure to the hypoxia, the survival time was assumed to be 15 minutes. The results were compared with a control group, to which only a liquid medium (e.g., physiological saline) was injected.

Another data set in a line: Acute Toxicity Test. The conditions noted are these: mouse, in vivo; ip, mice, suspended in 1% arabic gum. From the text: Male ddY-STF mice having an age of 4 to 5 weeks and a body weight of 22 to 30 g were used for evaluating the acute toxicity of the present compounds. The sample compound was suspended in 1% arabic gum and was intraperitoneally injected.
The test system of data set [2] is Male ddY mice (global ischemia). Description: Global Ischemia Activity (gasping time after decapitation). It counts as in vivo. The conditions noted are these: ip. As to the method:
as §1
2. Global Ischemia Activity
Male ddY mice having a body weight of 22 to 30 g were used (i.e., 6 mice in one group). The sample compound was intraperitoneally injected into the mice and the mice were decapitated 30 minutes after the injection. After decapitation, the gasping times were determined. The results were compared with a control group to which only the liquid medium (i.e., physiological saline) was injected.

By LD50 is commonly meant the dose expected to kill half of the subjects tested. A high value points to lower toxicity.

The structures appear in SMILES notation.

Turning to `COC1=C(OC)C(=O)C(C(CCC(=O)N2CCN(C)CC2)c2ccccc2)=C(C)C1=O` (stereo not drawn) [Example 3, 4-(3,4-Dimethoxy-6-methyl-2,5-benzoquinonyl)-4-phenyl-1-(N-methylpiperazinyl)-1-oxobutane], in data set [1], the minimal effective dose stood at 25 mg/kg. For the compound `COC1=C(OC)C(=O)C(C(CCC(=O)N2CCSCC2)c2ccccc2)=C(C)C1=O` (stereo not drawn) [Example 1, 4-(3,4-dimethoxy-6-methyl-2,5-benzoquinonyl)-4-phenyl-1-thiomorpholine-1-oxobutane], the minimal effective dose was determined as 6.25 mg/kg in data set [1] and 12.5 mg/kg in data set [2] (Mus musculus, 30 minutes before decapitation, gasping time vs. control, read-out: Global Ischemia (Minimum effective dose)). In the data set “Acute Toxicity Test”, this compound came in with a median lethal dose (LD50) of more than 1000 mg/kg. For `COC1=C(OC)C(=O)C(C(CCCC(=O)N2CCOCC2)c2ccccc2)=C(C)C1=O` (stereo not drawn) [Example 5, 5-(3,4-dimethoxy-6-methyl-2,5-benzoquinonyl)-5-phenyl-1-morpholino-1-oxopentane], the minimal effective dose in data set [1] came to 6.25 mg/kg. The compound also had an LD50 in the data set “Acute Toxicity Test” of more than 1000 mg/kg. For `COC1=C(OC)C(=O)C(C(CCCC(=O)N2CCSCC2)c2ccccc2)=C(C)C1=O` (stereo not drawn) [Example 4, 5-(3,4-dimethoxy-6-methyl-2,5-benzoquinonyl)-5-phenyl-1-thiomorpholino-1-oxopentane], the minimal effective dose in data set [1] amounted to 6.25 mg/kg. Also, the LD50 in “Acute Toxicity Test” was more than 1000 mg/kg. `COC1=C(OC)C(=O)C(C(CCCCCC(=O)O)c2ccccc2)=C(C)C1=O` (stereo not drawn) [compound 3, 7-(3,4-Dimethoxy-6-methyl-2,5-benzoquinonyl)-7-phenylheptanoic acid, reference compound]: the LD50 in the data set “Acute Toxicity Test” was more than 500 mg/kg. Besides, in data set [2] (25 mg/kg), the Gasping time entry is listed as “Gasping time was shortened”. `COC1=C(OC)C(=O)C(C(CCC(=O)O)c2ccccc2)=C(C)C1=O` (stereo not drawn) [compound 1, 4-(3,4-Dimethoxy-6-methyl-2,5-benzoquinonyl)-4-phenylbutyric acid, reference compound] showed an LD50 in the data set “Acute Toxicity Test” of more than 500 mg/kg.

For `COC1=C(OC)C(=O)C(C(CCCC(=O)O)c2ccccc2)=C(C)C1=O` (stereo not drawn) [compound 2, 5-(3,4-Dimethoxy-6-methyl-2,5-benzoquinonyl)-5-phenylvaleric acid, reference compound], the LD50 in “Acute Toxicity Test” was more than 500 mg/kg.

The values above are taken from patent US4774241A, “Derivative of benzoquinonylphenyl alkanoic acid amide” (Suntory Limited, priority 1986, dated 1988).
